For data set [1], the system named is IL-21 mRNA positive cells. Briefly: IL-21 mRNA positive cell frequency in lymph node and spleen by FISH. It is filed as in vivo, Rhesus macaque (Macaca Mulatta). The following applies: FX-only treated animals; lymph nodes and spleen. The protocol: The higher Tier 2 antibody productions indicated differences in germinal center capacities, so we performed (blinded) histochemical evaluation of axillary lymph node and spleen tissues collected at necropsy. Tissues were evaluated using fluorescent in situ hybridization (FISH) probes for each, IL-21 mRNA and SIV mRNA. Cells (stained with 4′,6-diamidino-2-phenylindole) were designated either positive or negative for each hybridization label. The frequency of positive cells was determined by dividing the positive signal by the total number of cells in the field of vision.
Immunohistochemistry and in situ hybridization of lymph node and spleen tissues collected at termination. Five μm formalin fixed paraffin embedded tissues sections were mounted on Superfrost Plus Microscope slides, baked overnight at 60° C. and passed through xylene, graded ethanol, and double distilled water to remove paraffin and rehydrate tissue sections. A microwave was used for heat induced epitope retrieval (HIER). […]
(§1) Quantification of fluorescent immunohistochemistry and in situ hybridization. […] Whole slide images were analyzed using HALO image analysis software v3.1 (Indica Labs, Albuquerque, NM). […] When quantifying SIV infected cells, areas with a dendritic pattern were excluded from the analysis. […] Comparison of treatment groups was assessed using a Mann-Whitney Test (2-tailed, nonparametric)

A short description of data set [2]: Safety assessment in SIV-infected Rhesus macaques (blood counts, clinical chemistries, flow cytometry, necropsy, histochemistry). The format is in vivo, Rhesus macaque (Macaca Mulatta). The following applies: 3 mg/kg, 3 times weekly for up to 24 weeks, subcutaneous. The protocol:
Antiviral treatments were initiated at 10 weeks post-infection after the initial inflammatory response had subsided. All drug treatments were administered subcutaneously to avoid repeated sedations of the animals. The control animals received vehicle only (10% dimethylsulfoxide in phosphate buffered saline, DMSO/PBS). The dual-treated group received equal dosing amounts and frequencies of FX101 (3.0 mg/kg, 3× weekly) and cART (daily); the cART treatment group received two nucleo(t/s)ide RT inhibitors (NRTIs), emtricitabine (FTC, 50 mg/kg) and tenofovir disoproxil fumarate (TDF, tenofovir prodrug, 5.1 mg/kg) plus one integrase strand transfer inhibitor (INSTI), dolutegravir (DTG, 2.5 mg/kg). […] Therapeutic cART treatments were administered for up to 24 total weeks, with animals followed for up to 27 weeks post cART cessation (˜1 year post infection). All animals were monitored daily for signs of adverse events during the study.
Safety was assessed by complete blood chemistries, clinical chemistries, flow cytometry, gross necropsies and histochemical tissue imaging. There were no apparent drug-related adverse events between treatment arms across these measures over the study timeline. However, since all the animals were SIV-infected, measures and observations outside of normal healthy expected ranges occurred. […]

A further data set relates to SIVmac251. Briefly: Plasma viremia by TAQMAN RT-PCR in SIVmac251-infected Rhesus macaques. The format is in vivo, Rhesus macaque (Macaca Mulatta). The following applies: monotherapy 3.0 mg/kg 3 times weekly, subcutaneous. The protocol: Twenty-four specific pathogen-free (SPF), all male, Rhesus macaque (Macaca Mulatta) nonhuman primates (NHPs) of Indian origin were utilized for this study. The animals were tested to be free from simian type D retrovirus (SRV), simian immunodeficiency virus (SIV), simian T-cell lymphotropic/leukemia virus (STLV) and Cercopithecine herpesvirus 1 (CHV-1) at study initiation. All animals were pre-screened as negative for the protective MHC class I alleles Mamu-A*01, Mamu-B*08, and Mamu-B*17 since these alleles are associated with elite control of SIV infection. All animal studies were approved by the appropriate Institutional Animal Care and Use Committee (IACUC).
Inoculation of NHPs with SIVmac251. […] Each animal was subsequently monitored.
The twenty-four (24) SIVmac251-infected Rhesus macaques were divided into four groups: (1) sham-treated controls (vehicle only); (2) FX101-treated; (3) combination antiretroviral therapy (cART)-treated and (4) FX101 plus cART-treated. […] Comparative evaluations between groups were determined to evaluate whether FX101 alone and/or in combination with cART safely reduces virus in plasma, CSF, tissue reservoirs and/or sanctuary sites. […] Comparative longitudinal clinical measures were assessed to evaluate the safety profile. […]
Determination of plasma and CSF Viral RNA Levels. The amount of RNA copies per ml was determined using a TAQMAN assay. […]

The subject of the next data set is SIV mRNA positive cells. Description: SIV mRNA positive cell frequency in lymph node and spleen by FISH. The format is in vivo, Rhesus macaque (Macaca Mulatta). To be noted: FX-only treatment group. The protocol: The higher Tier 2 antibody productions indicated differences in germinal center capacities, so we performed (blinded) histochemical evaluation of axillary lymph node and spleen tissues collected at necropsy. Tissues were evaluated using fluorescent in situ hybridization (FISH) probes for each, IL-21 mRNA and SIV mRNA. Cells (stained with 4′,6-diamidino-2-phenylindole) were designated either positive or negative for each hybridization label. The frequency of positive cells was determined by dividing the positive signal by the total number of cells in the field of vision. […]
as §1
The frequency of SIV positive cells per million cells was determined using fluorescent in situ hybridization (FISH) as described in Example 8. […]

For data set [3], the system named is zinc binding domain of nucleocapsid protein peptide. Briefly: MALDI-TOF competitive binding to nucleocapsid protein peptide in presence of zinc. On the set-up: species or system HIV. The following applies: equimolar ~2×10^−4 Molar in saline, with and without zinc. The protocol:
FIG. 1 illustrates in vitro competitive binding of FX101 to the zinc binding domain of nucleocapsid protein peptide in the presence of zinc ions using Matrix-assisted laser desorption ionization (MALDI)—time of flight (TOF) analyses. Mixtures were prepared in equimolar concentrations of ˜2×10^−4 Molar solutions in saline. […] Mass Spectrometer: Voyager DE STR (Applied Biosystems). Software: Voyager Instrument Control Panel (v 5.1) and Data Explorer (v4.0) Instrument Method: (a) ACTH_Reflector_Aug24_2010; Accelerating voltage 25000; Grid voltage 63.8%; Mirror voltage ratio1.12, Laser Rep Rate 20.0 Hz Band width 500: Vertical Scale 50, Bin size 0.5: Acquisition mass range 800-4000 Da; Delay 155, 165, or […], Laser Intensity 1480-1590. (b) angiotensine.bic, 75 nsec delay time Calibration: C1 or C2 standards in DHB matrix. Matrix: DHB (Laser BioLabs, France), 10 mg/ml in (a) 50% acetonitrile/50% water-0.1% TFA/50% water, no TFA, and (b) 50% ethanol/50% water, no TFA. Spotted: 0.5 μL sample.
The nucleocapsid protein (NC) of HIV is an established but elusive therapeutic target for HIV infection. Currently available antiretroviral drugs predominately target viral enzymes involved in replication, including reverse transcriptase, integrase and protease. Recently, a new drug class targeting the structural capsid protein has been approved. […]

Data set [4] deals with Japanese encephalitis virus (JEV). The following applies: cited from earlier work.
The subject of a further data set is dengue virus. The following applies: cited from earlier work.

SMILES strings stand for the structures.

Take `[NH2][Pt]([NH2])([Cl])([Cl])([Cl])[N+](=O)[O-]` [FX101]: in data set [1], the “frequencies of IL-21 mRNA positive cells versus control animals” value is “higher than for the control animals in both lymph nodes and spleen”. Further, the “adverse events / tolerability” value in data set [2] is “safe and well tolerated”. In the data set on SIVmac251, the “direct virus replication inhibition, plasma viremia during the treatment period” value is recorded as “no apparent direct virus replication inhibiting activities”. Moreover, in the data set with SIV mRNA positive cells, the “frequencies of virus in spleen and lymph nodes relative to the cART group” value is “very low frequencies of virus in both spleen and lymph nodes”. Further, the “binding to the nucleocapsid protein zinc domain peptide” value in data set [3] is reported as “binds to the peptide, even in the presence of zinc”.
As to `c1ccc(CN(CCN(Cc2ccccn2)Cc2ccccn2)Cc2ccccn2)nc1` [TPEN, N,N,N′,N′-tetrakis(2-pyridinylmethyl)-1,2-ethanediamine], in data set [4], the “inhibition of Japanese encephalitis virus (JEV) infection” value is “inhibits dengue virus and Japanese encephalitis virus (JEV) infection”. Also, the “inhibition of dengue virus infection” value in the data set on dengue virus is given as “inhibits dengue virus”.

These data come from patent US20250170172A1, “METHODS FOR TREATING LENTIVIRUS INFECTION” (Jericho Sciences, LLC, priority 2022, published 2025).
